Measurements from patent publication US7208154B2, “Methods and compositions for the treatment of MHC-associated conditions” (Regents of the University of Michigan, priority 2002, dated 2007).
Like-named read-outs stand apart in the source and are kept apart here.

Assays:
[1] = target: T1, calreticulin (Homo sapiens, UniProt P27797); experiment: Competitive inhibition of shared epitope peptide binding to calreticulin (Biacore); parameters: GST (cleaved yes); made in house; host or cells: E. coli (strain provided by Dr. Michalak)
T1 sequence (P27797 18-417): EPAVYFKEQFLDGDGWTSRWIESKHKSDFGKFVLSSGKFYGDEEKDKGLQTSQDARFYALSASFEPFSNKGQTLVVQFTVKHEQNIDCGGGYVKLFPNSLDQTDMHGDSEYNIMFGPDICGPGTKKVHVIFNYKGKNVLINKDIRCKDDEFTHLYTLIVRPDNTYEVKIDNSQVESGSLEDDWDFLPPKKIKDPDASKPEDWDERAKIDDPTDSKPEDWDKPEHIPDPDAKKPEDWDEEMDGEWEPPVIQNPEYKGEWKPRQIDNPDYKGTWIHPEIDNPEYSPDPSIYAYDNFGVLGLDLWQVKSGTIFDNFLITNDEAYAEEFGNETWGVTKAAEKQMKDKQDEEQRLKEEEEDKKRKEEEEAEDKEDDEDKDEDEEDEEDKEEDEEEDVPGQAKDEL
Protocol: Prior to use, biosensor chips CM5 were docked into a Biacore® 2000 and preconditioned in water at 100 μl/min by applying two consecutive 20-μl pulses of 50 mM NaOH, then 10 mM HCl, and finally 0.1% SDS. Calreticulin was immobilized on CM5 surface by standard primary amine coupling [Lofas S et al. Biosensors & Bioelectronics, 10: 813–822, (1995), Johnsson B et al. J Mol Recognit., 8: 125–131, (1995), Karlsson R et al. J. Immunol. Methods, 200:121–133. (1997)]. Immobilizations were conducted at 25° C. in HBS-EP (10 mM HEPES, pH7.4, 150 mM NaCl, 1 mM EDTA, 0.005% Surfactant P-20), with a flow of 10 μl/min. The CM5 surface was activated by 7 min injection of 200 mM EDC/50 mM NHS to prepare a high-capacity surface, with manual injection of 100 μg/ml calreticulin until 5500 RU level was approached. Then 100 μl of 1M ethanolamine was used to block remaining activated group.
Calreticulin and peptide binding were performed at 25° C. in binding buffer (10 mM HEPES, pH8.0, 50 mM KCl, 0.5 mM CaCl2, 1% Triton-X100), with a flow rate of 10 μl/min. Peptides in the analyte ranged in concentration from 25–180 μM. Binding assays were repeated at least 3 times. Kinetic analysis was performed using Kinetic separate ka/kd fitting in BIA evaluation 3.0 software.
In order to determine whether DKCLA [SEQ ID NO: 16] and shared epitope-expressing peptides compete for the same binding site on calreticulin, competitive binding studies were performed in which the calreticulin binding activity of 14-mer shared epitope-expressing peptides was determined in the presence or absence of different pentapeptides. […] Thus, a Q70D substitution produces a shared epitope-antagonistic effect.

[2] = system: human fibroblastoid line M1 cells; details: M1 cells preincubated overnight with 50 μg/ml synthetic pentapeptide
Description: To further determine the signaling pathways involved in DNA repair induction, the inventors used the Trevigen CometAssay™ kit (Cat. No. 4250-50-K). The CometAssay is a single-cell gel electrophoresis method that can measure a variety of types of DNA damage, and repair of damage, in individual cells. The assay is based on the alkaline lysis of labile DNA at sites of damage. The unwound, relaxed DNA is able to migrate out of the cell during electrophoresis and can be visualized by SYBR Green staining.
To quantify DNA damage, cells were collected and three parallel samples were processed (a negative control, a DNA damage control (H2O2) and a sample subjected to H2O2 following exposure to various modulators of the cAMP signaling pathway). Cells are then washed in PBS. The washed cells are combined with molten low-melting agarose (Trevigen Cat. No. 4250-50-02) and transferred to a CometSlide™ (Trevigen Cat. No. 4250-100-03). The slides are immersed in lysis buffer for 30 min, on ice, in the dark. The slides are then treated with alkali buffer for 20 to 60 min at room temperature in the dark. The slides are then electrophoresed in buffer for 10 min at 20 volts, then fixed in methanol and ethanol. The slides are then stained with SYBR green (Trevigen Cat. No. 4250-50-05) solution and fluorescently imaged with a Diagnostic Instruments digitized camera, mounted on a Nikon Eclipse E400 microscope. Scion Image software is used to quantitate the comet tail intensity. Each data point is derived from tail fluorescent intensity determination in 50–100 individual cells. Data is presented as % DNA repair (the percent decrement in tail fluorescence intensity in agonist or antagonist-treated cells, relative to the intensity recorded in cells treated with H2O2 only)±SEM. (R.U.s)
To directly examine that possibility, cells were incubated overnight with synthetic peptides corresponding to the region contained within amino acids 65–79 and their ability to mount DNA repair activity in response to cAMP-elevating agents was determined. M1 cells were preincubated overnight with 50 μg/ml of synthetic peptides corresponding to the region surrounding the third allelic hypervariable region (aa 65–79) of each of the following DRβ chains: *0401 (65–79*0401) [SEQ ID NO: 5], *0402 (65–79*0402) [SEQ ID NO: 7], *0403 (65–79*0403) [SEQ ID NO: 9] or *0404(65–79*0404) [SEQ ID NO: 10]. At the end of the preincubation, cells were collected, washed and 2CA-induced DNA repair was determined as above. Table 3 (above) lists the different third allelic hypervariable region peptides used in the entire study disclosed here.
A modified method as described previously by Auger et al. [Nature Med 2:306–310 1996] was used. Briefly, cyanogen bromide activated Speharose 4B (1.5 ml) was washed with 1 mM HCl and incubated with peptides in 0.1 M NaHCO3 and 0.5 M NaCl (pH 8) buffer overnight at 4° C. For each peptide, 5 mg was used per milliliter of Sepharose. Free Sepharose groups were blocked with 0.2 M glycine (pH 8) for 2 hours at room temperature. Columns were washed at 4° C. with the following buffers: 0.1 M NaHCO3, 0.5 M NaCl (pH 8) buffer, then 0.5 M CH3COONa (pH 4) buffer and finally PBS at pH 7.5. M1 cells were plated at a density of 0.5×10^6 cells per well (6 well plate) in 10% FBS DMEM medium until 70–80% confluence. Prior to incubation with peptides, cultures were changed to serum-free DMEM medium, then evenly overlaid with 50 μg bead conjugated peptides, and incubated for the indicated period. Soluble peptides were added overnight to M1 cells at a concentration of 50 μg/ml.

| IC50, inhibition of 65–78*0401 binding to calreticulin ([1]; dose response analysis, FIG. 16C) | IC50, inhibition of 65–78*0404 binding to calreticulin ([1]; dose response analysis, FIG. 16D) | Substance | Inhibition of 65–79*0401 binding to calreticulin ([1]; Biacore assay, control experiment under identical conditions) | Inhibition of cAMP-dependent (2CA-induced) DNA repair induction / genoprotective pathway by pentapeptide [2] | Block of 65–78*0401 binding to calreticulin ([1]; 14-mer peptide 65–78*0401) | Block of 65–78*0404 binding to calreticulin ([1]; 14-mer peptide 65–78*0404) | Inhibition of cAMP-dependent (2CA-induced) DNA repair induction / genoprotective pathway by pentapeptide ([2]; listed as #7) |
| --- | --- | --- | --- | --- | --- | --- | --- |
| – | – | Gln Lys Arg Ala Glu (QKRAE) | did not inhibit 65–79*0401 binding to calreticulin | failed to do so | – | – | – |
| low-υM range | low-υM range | DKCLA [Asp Lys Cys Leu Ala] | – | biologically inactive | effectively and specifically blocked binding | effectively and specifically blocked binding | failed to do so |
